Reference: patent US8501995B2, “β-phenylethylidenehydrazine derivatives” (The Governors of the University of Alberta, priority 2009, dated 2013)
Read-outs that look alike come from different tables or passages of the source.

Key:
MAO-A [1] = target: T1, MAO-A (Rattus norvegicus, UniProt P21396); experiment: MAO-A inhibition in vitro in control rat brain homogenate (14C-5-hydroxytryptamine substrate); format: biochemical
T1 construct: from tissue; host or cells: rat (male Sprague-Dawley) whole brain homogenate
T1 sequence (P21396 1-526): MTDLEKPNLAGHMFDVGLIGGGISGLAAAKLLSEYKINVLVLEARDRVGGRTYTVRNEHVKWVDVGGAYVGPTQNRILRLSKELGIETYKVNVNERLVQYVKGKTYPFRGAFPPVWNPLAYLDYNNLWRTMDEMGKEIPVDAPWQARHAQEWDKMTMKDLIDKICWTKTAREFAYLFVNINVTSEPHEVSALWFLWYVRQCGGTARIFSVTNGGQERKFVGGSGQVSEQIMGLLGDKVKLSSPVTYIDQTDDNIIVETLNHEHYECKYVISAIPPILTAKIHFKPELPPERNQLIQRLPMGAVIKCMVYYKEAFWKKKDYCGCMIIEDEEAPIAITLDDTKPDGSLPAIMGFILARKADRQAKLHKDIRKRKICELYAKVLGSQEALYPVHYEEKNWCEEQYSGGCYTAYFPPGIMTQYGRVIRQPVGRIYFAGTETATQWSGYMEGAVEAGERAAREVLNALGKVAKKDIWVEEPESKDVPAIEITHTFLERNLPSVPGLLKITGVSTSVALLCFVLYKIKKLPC
Description: (§1) Monoamine oxidase activity was determined using a modified protocol described by Lyles and Callingham.^51 In the in vitro studies, the drugs were pre-incubated with control rat brain homogenate prior to conducting the assay. Briefly, tissue homogenate was diluted in KH2PO4 (0.2M), and an aliquot (50 μl) was incubated with the appropriate radiolabelled substrates (^14C-labelled 5-hydroxytryptamine and β-phenylethylamine were used as substrates for MAO-A and -B respectively). The reaction products were extracted by a mixture of ethyl acetate and toluene (1:1 v/v), and a portion of the top layer was added to a vial containing scintillation fluid for radioactivity measurement. Radioactivity (dpm) was counted using a Beckman LS 7500 liquid scintillation spectrometer.

MAO-B [2] = target: T2, MAO-B (Rattus norvegicus, UniProt P19643); experiment: MAO-B inhibition in vitro in control rat brain homogenate (14C-β-phenylethylamine substrate); format: biochemical
T2 construct: the drugs were pre-incubated with control rat brain homogenate prior to conducting the assay; from tissue; host or cells: rat (male Sprague-Dawley) whole brain homogenate
T2 sequence (P19643 1-520): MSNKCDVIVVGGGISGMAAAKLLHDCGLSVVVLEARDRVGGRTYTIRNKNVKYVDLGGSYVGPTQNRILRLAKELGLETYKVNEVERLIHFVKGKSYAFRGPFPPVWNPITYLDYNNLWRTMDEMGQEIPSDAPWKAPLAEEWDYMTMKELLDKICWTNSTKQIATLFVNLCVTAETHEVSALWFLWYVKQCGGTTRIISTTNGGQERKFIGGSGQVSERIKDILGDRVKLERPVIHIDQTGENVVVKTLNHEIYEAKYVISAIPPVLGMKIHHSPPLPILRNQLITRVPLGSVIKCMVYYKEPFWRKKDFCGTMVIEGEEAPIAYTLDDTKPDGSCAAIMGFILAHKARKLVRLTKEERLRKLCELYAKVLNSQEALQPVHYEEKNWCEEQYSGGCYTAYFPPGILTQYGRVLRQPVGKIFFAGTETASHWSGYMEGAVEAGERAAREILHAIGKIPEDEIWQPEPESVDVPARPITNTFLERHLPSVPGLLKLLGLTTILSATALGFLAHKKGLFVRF
Description: as §1

GABA-T [3] = target: T3, GABA-T (Rattus norvegicus, UniProt P50554); experiment: GABA-T activity ex vivo in brain homogenates of drug-treated rats (radiochemical); details: i.p., equimolar doses (PEH 30 mg/kg, 7p 47 mg/kg, 8p 38.5 mg/kg)
T3 construct: Brain homogenate from control rats was pre-incubated with the drug of interest; from tissue; host or cells: rat (male Sprague-Dawley) whole brain homogenate
Description: (§2) Male Sprague-Dawley rats (approximately 300 g) were pair-housed in polycarbonate cages with free access to food (Purina Rat Chow) and water, and were maintained on a 12-hour light-dark cycle (lights on at 0800). All animal procedures were approved by the University of Alberta Biosciences Animal Policy and Welfare Committee, and were carried out in accordance with the guidelines of the Canadian Council on Animal Care.
(§3) In the ex vivo studies, animals were injected intraperitoneally with equimolar amounts of PEH (30 mg/kg), 7p (47 mg/kg) or 8p (38.5 mg/kg) or vehicle (corn oil) and were killed by decapitation 3, 6 or 12 hours following drug administration. Brains were rapidly removed and flash-frozen in 2-methylbutane on solid carbon dioxide, and were stored at −80° C. Subsequently, partially-thawed brains were homogenized in 5 volumes of ice-cold distilled water, and stored in aliquots at -80° C. for use in subsequent analyses (GABA-T, MAO-A, MAO-B, and brain levels of amino acids) after addition to the appropriate buffer medium.
(§4) A modification of the colorimetric method of Sethi^49 was used in the initial in vitro screen. Brain homogenate from control rats was pre-incubated with the drug of interest and an incubation buffer before conducting the assay. In the ex vivo study of homogenates from brains of rats treated with the analogs, GABA-T activity was measured using the radiochemical procedure of Sterri and Fonnum.^20 Briefly, homogenates were incubated with radiolabelled GABA in a buffer containing pyridoxal phosphate and the resultant products were isolated using a liquid anion exchanger (tri-n-octylamine). Radioactivity (dpm) was counted using a Beckman LS 7500 liquid scintillation spectrometer.

MAO-A [4] = target: T1, MAO-A; experiment: MAO-A activity ex vivo in brain tissue of drug-treated rats; details: for MAO-A activity ex vivo / MAO-A inhibition ex vivo: 8p 38.5 mg/kg i.p.; for effect on MAO-A activity ex vivo: time points tested 3, 6, 12 hours, i.p., equimolar doses (PEH 30 mg/kg, 7p 47 mg/kg, 8p 38.5 mg/kg)
Description: as §2, §3, §1

MAO-B [5] = target: T2, MAO-B; experiment: MAO-B activity ex vivo in brain tissue of drug-treated rats; details: i.p.; for MAO-B activity ex vivo: 7p 47 mg/kg, 8p 38.5 mg/kg; for effect on MAO-B activity ex vivo: time points tested 3, 6, 12 hours, equimolar doses (PEH 30 mg/kg, 7p 47 mg/kg, 8p 38.5 mg/kg)
Description: as §2, §3, §1

[6] = test system: brain levels of amino acids (GABA, glutamate, alanine and glycine); format: in vivo; details: rat whole brain; for effect on brain GABA levels / effect on brain alanine levels / effect on brain glutamate levels / effect on brain glycine levels: 3, 6, 12 hours, i.p., equimolar doses (PEH 30 mg/kg, 7p 47 mg/kg, 8p 38.5 mg/kg)
Description: as §2, §3
Amino acid levels (GABA, glutamate, alanine and glycine) were determined using a modified procedure previously described by Grant and colleagues^52 for the quantification of amino acids using HPLC combined with fluorescence detection, following derivatization with fluoraldehyde reagent [o-phthaldialdehyde (OPA)] and isobutyryl-L-cysteine (IBLC). Briefly, a portion of the homogenate (100 μl) was added to ice-cold methanol (400 μl), re-homogenized and centrifuged (13,000 g, 4° C.). The supernatants were further diluted by a factor of 2 in ice-cold water, and transferred to HPLC vials. A portion of the supernatant (5 μl) was reacted with OPA/IBLC (5 μl) in the injection loop of a Waters Alliance 2690XE system for 1.5 minutes before injection onto the analytical column (Symmetry C18 5 μm (4.6×150 mm)), connected to a Symmetry C18 guard column, held at 30° C. A Waters 474 fluorescence detector was set to an excitation wavelength of 344 nm and an emission wavelength of 443 nm. Data were collected and analyzed using the Empower Pro software package (Waters).

GABA-T [7] = target: T3, GABA-T; experiment: GABA-T inhibition in vitro, colorimetric screen in control rat brain homogenate; format: biochemical
Description: as §4

[8] = rat brain homogenate, mean±SEM, n=4
[9] = 3 hours following drug administration
[10] = 6 hours following drug administration
[11] = 6 hours following drug injection
[12] = 12 hours following drug injection
[13] = 3 hours following injection, PEH 30 mg/kg i.p.

T3 sequence (P50554 28-500): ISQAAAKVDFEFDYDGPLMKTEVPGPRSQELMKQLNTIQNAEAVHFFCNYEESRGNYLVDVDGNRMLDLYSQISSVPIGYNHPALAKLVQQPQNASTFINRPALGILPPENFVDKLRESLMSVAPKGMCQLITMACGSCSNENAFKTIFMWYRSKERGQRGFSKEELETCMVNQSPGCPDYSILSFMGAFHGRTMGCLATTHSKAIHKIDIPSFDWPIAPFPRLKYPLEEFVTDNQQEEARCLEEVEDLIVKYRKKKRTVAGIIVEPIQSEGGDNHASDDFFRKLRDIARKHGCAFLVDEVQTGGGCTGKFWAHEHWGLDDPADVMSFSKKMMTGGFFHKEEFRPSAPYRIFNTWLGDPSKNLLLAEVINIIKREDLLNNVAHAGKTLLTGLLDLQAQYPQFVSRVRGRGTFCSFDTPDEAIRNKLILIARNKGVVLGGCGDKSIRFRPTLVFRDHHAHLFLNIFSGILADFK

Row | Compound | inhibition of MAO-A in vitro (MAO-A [1]; [8]) | inhibition of MAO-B in vitro (MAO-B [2]; [8]) | GABA-T activity ex vivo (GABA-T [3]; 3 hours post-injection) | GABA-T activity ex vivo (GABA-T [3]; 6 hours post-injection) | GABA-T activity ex vivo (GABA-T [3]; 12 hours post-injection) | inhibition of MAO-A in vitro (MAO-A [1]; concentration of 10 μM) | inhibition of MAO-B in vitro (MAO-B [2]; concentration of 10 μM) | effect on MAO-A activity ex vivo (MAO-A [4]) | MAO-B activity ex vivo (MAO-B [5]; [11]) | MAO-B activity ex vivo (MAO-B [5]; [12]) | effect on MAO-B activity ex vivo (MAO-B [5]) | effect on brain GABA levels [6] | effect on brain alanine levels [6] | effect on brain glutamate levels [6] | effect on brain glycine levels [6] | further results
1 | NNCCc1ccccc1 [PLZ, phenelzine, reference compound] | greater than 95% | greater than 95% |  |  |  |  |  |  |  |  |  |  |  |  |  | 
2 | C#CCNN=CCc1ccccc1 [8p, (E)- and (Z)-N-(2-Propynyl)-2-(phenyl)ethylidene]hydrazines] |  |  | 76 % of control | 77 % of control | not significantly different from control values | neither 7p nor 8p caused any inhibition of MAO-A or -B | neither 7p nor 8p caused any inhibition of MAO-A or -B | weak, transient effect on MAO-A | 24 % of control | 29 % of control | significantly reducing MAO-B activity at all time points tested | did not significantly alter the levels of GABA, alanine or glutamate at any time point tested | did not significantly alter the levels of GABA, alanine or glutamate at any time point tested | did not significantly alter the levels of GABA, alanine or glutamate at any time point tested | significantly increased glycine at 3 and 6 hours post-injection | MAO-A activity ex vivo (MAO-A [4]; [9]): 78 % of control; MAO-A inhibition ex vivo (MAO-A [4]; [9]): 22%; MAO-A activity ex vivo (MAO-A [4]; [10]): 70 % of control; MAO-A inhibition ex vivo (MAO-A [4]; [10]): 30%; brain glycine level ([6]; 6 hours post-injection, 8p 38.5 mg/kg i.p.): 216 % of control
3 | C#CCN(CC#C)/N=C/Cc1ccccc1 [7p] |  |  | 86 % of control | 86 % of control | not significantly different from control values | neither 7p nor 8p caused any inhibition of MAO-A or -B | neither 7p nor 8p caused any inhibition of MAO-A or -B | did not significantly alter MAO-A activity at any time point tested | 58 % of control | 25 % of control | significantly reducing MAO-B activity at all time points tested | did not significantly alter the levels of GABA, alanine or glutamate at any time point tested | did not significantly alter the levels of GABA, alanine or glutamate at any time point tested | did not significantly alter the levels of GABA, alanine or glutamate at any time point tested | increased glycine at 3, 6 and 12 hours post-injection | brain glycine level ([6]; 12 hours post-injection, 7p 47 mg/kg i.p.): 248 % of control
4 | NN=CCc1ccccc1 [PEH, β-Phenylethylidenehydrazine] | 26.7±3.1% | 14.9±6.6% | 66 % of control | 66 % of control | 70 % of control |  |  | did not alter the activity of either MAO-A or -B |  |  | did not alter the activity of either MAO-A or -B | increased brain GABA and alanine levels | increased brain GABA and alanine levels | did not significantly alter brain glutamate or glycine levels | did not significantly alter brain glutamate or glycine levels | inhibition at 10 µM (GABA-T [7]): ~50%; brain GABA level [6, 13]: 418 % of control; brain alanine level [6, 13]: 489 % of control
